Publication PMC5424463, “A strategy based on nucleotide specificity leads to a subfamily-selective and cell-active inhibitor of N ^6-methyladenosine demethylase FTO” (Chemical Science, 2014)

Assays:
[1] = molecular target: T1, FTO (Homo sapiens, UniProt Q9C0B1); assay: Differential scanning fluorimetry (DSF)-based binding assay, FTO; conditions: 100 μM compound, 2 μM protein, 50 μM MnCl2, read-out: Tm shift (FTO)
T1 construct: The human full length FTO construct used in this study; made in house; host or cells: E. coli BL21 (DE3) Rosetta T1R
Protocol: Superdex-200 column (GE Healthcare) pre-equilibrated with 20 mM HEPES, pH 7.5, 300 mM NaCl, 10% (v/v) glycerol, 0.5 mM TCEP. […]
Differential scanning fluorimetry (DSF)-based binding assay
DSF-based binding assay was performed using a MiniOpticon™ Real-Time PCR Detection System (Bio-Rad), monitoring protein unfolding using SYPRO orange (Invitrogen) according […]
to the reported method.[16] […]
and emission respectively. Reaction mixes contained 2 μM protein, 50 μM MnCl2, 100 μM […]
Reagents were prepared in 50mM
HEPES buffer, pH 7.5 except metals, which were dissolved as 100 mM stocks in 20 mM HCl, then further diluted in MilliQ water. Compounds tested were prepared in 100% DMSO and added such that the final concentration of DMSO was not more than 1% v/v of assay […]
increased linearly by 1°C min -1. The software provided was used to perform global minimum subtraction. The inflection point, representing Tm, was calculated by fitting the Boltzmann equation to the sigmoidal curves obtained; data were processed using GraphPad Prism 6.0™.
The Tm shift caused by the addition of small molecules/ fragments was determined by subtraction of the “reference” Tm (protein incubated with metal and 1% v/v DMSO) from the Tm obtained in the presence of the compound. […]

[2] = molecular target: T2, JMJD2A (Homo sapiens, UniProt O75164); assay: MALDI-based inhibition assay for JMJD2A; type: biochemical; conditions: ARK(me3)STGGK substrate
T2 construct: pNIC28-Bsa4 JMJD2A (encompassing residues 1-359); inferred from Ni-NTA purification and the pNIC28-Bsa4 vector; made in house; host or cells: E. coli BL21 (DE3) Rosetta T1R
T2 sequence (O75164 1-359): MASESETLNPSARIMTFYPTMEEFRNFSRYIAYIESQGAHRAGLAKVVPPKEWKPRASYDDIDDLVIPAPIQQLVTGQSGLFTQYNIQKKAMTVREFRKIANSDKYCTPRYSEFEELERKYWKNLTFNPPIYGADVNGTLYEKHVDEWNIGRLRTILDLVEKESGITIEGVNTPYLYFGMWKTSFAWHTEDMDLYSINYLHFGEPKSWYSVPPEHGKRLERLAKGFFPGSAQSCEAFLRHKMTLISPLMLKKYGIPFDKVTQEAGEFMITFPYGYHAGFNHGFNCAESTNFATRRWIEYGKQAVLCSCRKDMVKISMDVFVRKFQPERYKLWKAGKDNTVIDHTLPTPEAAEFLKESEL
Protocol: min, before 1:1 quenching with methanol. 1 uL of the diluted assay mixture was then mixed with 1 uL of α-cyano-4-hydroxycinnamic acid (CHCA, the MALDI-TOF-MS matrix, Sigma-Aldrich) and spotted onto the MALDI-TOF-MS plate before analysis. The CHCA matrix consisted of 10 mg/mL CHCA in 50% MeCN/Milli-Q H2O containing 0.1% TFA. The percentage inhibition was estimated based on the relative intensities of the unhydroxylated substrate and the hydroxylated product observed in the mass spectra. For IC50 determination, eight different concentrations of inhibitors were used (0, 1, 3, 10, 30, 100, 300, 1000 µM); the IC50s were then calculated from the variation in percentage hydroxylation at different inhibitor concentrations, using nonlinear regression, with normalized dose-response fit on […]
MALDI-based inhibition assay for JMJD2A
The assay was performed as previously reported, with modifications.[20] A peptide substrate with the sequence ARK(me3)STGGK (GL Biochem (Shanghai) Ltd) was used in this inhibition assay. The assay was performed in triplicate for each inhibitor, in a final reaction volume of 25 µL. […]
IC50s were then calculated from the variation in percentage demethylation at different

T1 sequence (Q9C0B1 whole entry): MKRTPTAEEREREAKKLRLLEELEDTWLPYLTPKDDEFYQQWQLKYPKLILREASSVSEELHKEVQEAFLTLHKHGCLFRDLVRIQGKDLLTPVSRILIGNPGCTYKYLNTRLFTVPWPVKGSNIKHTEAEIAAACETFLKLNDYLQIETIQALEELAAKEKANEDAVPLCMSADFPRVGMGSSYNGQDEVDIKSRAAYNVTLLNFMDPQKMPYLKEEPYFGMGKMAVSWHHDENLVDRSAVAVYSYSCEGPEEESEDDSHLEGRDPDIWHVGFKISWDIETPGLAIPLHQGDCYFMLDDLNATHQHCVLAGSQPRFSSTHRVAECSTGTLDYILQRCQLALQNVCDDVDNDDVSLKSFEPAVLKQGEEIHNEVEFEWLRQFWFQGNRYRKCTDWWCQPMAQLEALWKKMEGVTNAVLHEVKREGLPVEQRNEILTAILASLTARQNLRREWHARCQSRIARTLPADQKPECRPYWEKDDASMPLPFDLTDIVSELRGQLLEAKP

Row | SMILES | ΔTm at 100 µM [1] [°C] | IC50 [2] [µM]
1 | O=C(O)C=CC(=O)NNC(=O)c1cc(Cc2ccccc2)ccn1 [Compound 22] | 3 | –
2 | O=C(O)/C=C/C(=O)NNC(=O)c1ccccn1 [Compound 23] | 2.7 | –
3 | O=C(O)/C=C/C(=O)NNC(=O)c1cnccc1Cc1ccccc1 [Compound 12] | – | > 300
